Test results from ChEMBL document CHEMBL2073906, “Interactions of ofloxacin and erythromycin with the multidrug resistance protein (MRP) in MRP-overexpressing human leukemia cells” (Antimicrob Agents Chemother, 2000).

Assays:
[1] = biological target: T1, Multidrug resistance-associated protein 1 (Homo sapiens, UniProt P33527); assay: TP_TRANSPORTER: increase in Vincristine intracellular accumulation (Vincristine: 0.03 uM, Ofloxacin: 21.7 mg/mL) in HL60R cells: flow cytometric analysis; assay type: functional, cell-based
T1 sequence (P33527 whole entry): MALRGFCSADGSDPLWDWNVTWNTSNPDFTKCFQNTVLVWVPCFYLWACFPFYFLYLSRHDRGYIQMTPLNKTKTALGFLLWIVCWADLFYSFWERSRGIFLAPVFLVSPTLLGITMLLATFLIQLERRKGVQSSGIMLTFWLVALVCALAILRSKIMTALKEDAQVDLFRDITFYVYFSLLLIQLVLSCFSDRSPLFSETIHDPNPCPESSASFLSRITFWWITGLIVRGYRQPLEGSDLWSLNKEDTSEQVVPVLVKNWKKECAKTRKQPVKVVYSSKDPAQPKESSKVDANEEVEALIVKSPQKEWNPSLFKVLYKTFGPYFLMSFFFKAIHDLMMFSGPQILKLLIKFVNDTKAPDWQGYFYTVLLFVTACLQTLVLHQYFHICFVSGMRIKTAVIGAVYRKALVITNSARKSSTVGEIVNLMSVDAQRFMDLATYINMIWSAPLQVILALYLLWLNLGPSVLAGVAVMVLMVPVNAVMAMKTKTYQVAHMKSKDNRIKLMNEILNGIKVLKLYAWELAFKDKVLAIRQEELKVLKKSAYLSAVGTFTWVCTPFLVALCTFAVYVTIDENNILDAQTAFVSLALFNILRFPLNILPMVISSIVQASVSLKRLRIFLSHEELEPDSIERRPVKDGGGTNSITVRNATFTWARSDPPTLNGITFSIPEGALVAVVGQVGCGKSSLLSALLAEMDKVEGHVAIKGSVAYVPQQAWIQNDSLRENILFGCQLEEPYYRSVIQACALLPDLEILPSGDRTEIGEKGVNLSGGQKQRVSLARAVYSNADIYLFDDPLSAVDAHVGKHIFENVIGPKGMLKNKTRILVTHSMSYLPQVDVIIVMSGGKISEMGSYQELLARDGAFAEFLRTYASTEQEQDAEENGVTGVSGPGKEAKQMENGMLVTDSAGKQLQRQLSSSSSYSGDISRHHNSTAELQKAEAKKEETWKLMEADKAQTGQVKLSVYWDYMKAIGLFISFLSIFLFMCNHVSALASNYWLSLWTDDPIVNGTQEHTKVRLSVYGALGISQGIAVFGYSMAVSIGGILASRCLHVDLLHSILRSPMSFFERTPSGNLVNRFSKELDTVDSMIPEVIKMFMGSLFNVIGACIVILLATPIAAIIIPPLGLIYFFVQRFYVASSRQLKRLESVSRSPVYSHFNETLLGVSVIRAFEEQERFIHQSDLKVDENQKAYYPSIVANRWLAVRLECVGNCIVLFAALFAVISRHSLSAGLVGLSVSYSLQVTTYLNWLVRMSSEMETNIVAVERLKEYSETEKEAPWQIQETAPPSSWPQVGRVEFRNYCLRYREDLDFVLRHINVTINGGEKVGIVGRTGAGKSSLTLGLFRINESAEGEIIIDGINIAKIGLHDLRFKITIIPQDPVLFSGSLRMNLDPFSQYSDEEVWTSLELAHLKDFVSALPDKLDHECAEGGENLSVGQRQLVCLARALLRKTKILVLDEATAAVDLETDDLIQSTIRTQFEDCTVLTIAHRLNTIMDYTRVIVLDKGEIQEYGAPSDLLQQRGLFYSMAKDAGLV

[2] = biological target: T1, Multidrug resistance-associated protein 1; assay: TP_TRANSPORTER: increase in Vincristine intracellular accumulation (Vincristine: 0.03 uM, Erythromycin: 14.7 mg/mL) in HL60R cells: flow cytometric analysis; assay type: functional, cell-based

SMILES	Activity [1]	Activity [2]
CC1COc2c(N3CCN(C)CC3)c(F)cc3c(=O)c(C(=O)O)cn1c23 (configuration not stated) [OFLOXACIN]	0.29	–
CC[C@H]1OC(=O)[C@H](C)[C@@H](O[C@H]2C[C@@](C)(OC)[C@@H](O)[C@H](C)O2)[C@H](C)[C@@H](O[C@@H]2O[C@H](C)C[C@H](N(C)C)[C@H]2O)[C@](C)(O)C[C@@H](C)C(=O)[C@H](C)[C@@H](O)[C@]1(C)O [ERYTHROMYCIN]	–	0.16
